How the values were obtained:
[1] = Rat IV and PO pharmacokinetic profiling; type: in vivo, male Sprague-Dawley rats; details: male, Sprague-Dawley, plasma, n = 3, mean ± standard deviation
Procedure: The pharmacokinetic profiles of Example 2 were assessed in male Sprague-Dawley rats via intravenous (IV) and oral (per os, PO) routes of delivery. Pharmacokinetic data (mean values±standard deviation) for Example 2 of the invention are detailed in Table 5.
Methods: For pharmacokinetic analysis, groups of three male Sprague-Dawley rats, ranging in weight between 200 and 230 g, were administered a single dose of Example 2 via IV or PO route, using the doses, dose volumes and vehicles specified in Table 5. Following dosing, blood samples were taken at several time points (pre-dose, 2 min, 5 min, 15 min, 30 min, 1 h, 3 h, 6 h, 12 h and 24 h for IV administration and pre-dose, 5 min, 15 min, 30 min, 1 hr, 2 h, 4 h, 8 h, 12 h and 24 h for PO administration) via serial tail vein bleeds, and centrifuged to separate plasma for analysis by LC-MS/MS. WinNonlin v8.2 statistics software (Pharsight Corporation, California, USA) was used to generate pharmacokinetic parameters using non-compartmental analysis.

human GPR52 = target: T1, human GPR52 (Homo sapiens, UniProt Q9Y2T5); test: GPR52 Agonist Functional cAMP Assay; type: cell-based
T1 construct: expressed in transfected cells; host or cells: HEKf suspension cells infected with BacMam virus
T1 sequence (Q9Y2T5 whole entry): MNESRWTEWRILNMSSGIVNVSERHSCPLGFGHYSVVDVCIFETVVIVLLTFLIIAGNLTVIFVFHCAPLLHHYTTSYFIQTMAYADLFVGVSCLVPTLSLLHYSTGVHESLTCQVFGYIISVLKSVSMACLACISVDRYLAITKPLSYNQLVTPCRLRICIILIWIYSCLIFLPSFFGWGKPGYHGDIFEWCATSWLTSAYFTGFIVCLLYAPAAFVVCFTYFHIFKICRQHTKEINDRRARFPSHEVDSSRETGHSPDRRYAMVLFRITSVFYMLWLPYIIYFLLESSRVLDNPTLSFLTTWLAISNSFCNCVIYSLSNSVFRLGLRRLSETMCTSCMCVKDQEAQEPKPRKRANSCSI
Procedure: GPR52 Agonist Functional cAMP Assay
HEKf suspension cells were infected for 24 h with 0.1% v/v human GPR52 expressing BacMam virus, a modified baculovirus designed for mammalian gene expression. Following BacMam infection, cells were pelleted by centrifugation (335 g, 5 min), resuspended in cell freezing medium (Sigma) and frozen at −150° C. until required. On experiment day, 25 nL GPR52 compound dilutions, prepared in DMSO, were stamped onto proxiplates (PerkinElmer) by a LabCyte ECHO acoustic dispenser. Frozen cells were thawed and resuspended in assay stimulation buffer (Cisbio) containing 0.5 mM 3-iso-butyl-1-methylxanthine (IBMX, Sigma) to achieve a density of 2000 cells per well. 10 μl cells were added to assay plates using a Multidrop Combi Reagent Dispenser (ThermoFisher) before centrifugation (335 g, 1 min). Cells were incubated with compounds at 37° C. for 30 min prior to addition of cAMP detection reagents (HiRange cAMP kit, Cisbio) which were prepared according to the manufacturer's instructions. Plates were shaken for 1 h at room temperature before reading on a PHERAstar FS plate reader (BMG Labtech) using standard HTRF settings. HTRF ratios were obtained by dividing the acceptor emissions (665 nm) by the donor emissions (620 nm) and multiplying by 10,000.

[2] = Rat IV brain penetration (unbound brain-to-plasma ratio); type: in vivo, male Sprague-Dawley rats; details: male, Sprague-Dawley, brain and plasma, 1 mg/kg, 10 min post-dose, n = 3
Procedure: Plasma and brain exposure were evaluated to assess the brain penetration of Example 2, following IV administration. Unbound brain-to-plasma ratio (Kp,uu) was calculated, as detailed in Table 5, following experimental determination of binding in rat plasma and brain homogenate.
Methods: For brain penetration assessment, male Sprague-Dawley rats (n=3) were administered a single 1 mg/kg dose (formulated in 10% DMAC+10% Solutol HS15+80% saline) via the IV route. After 10 min post-dose, animals were sacrificed and brains extracted, homogenised with 2 volumes (w/v) of 50 mM sodium phosphate buffer (pH 7.4), and analysed by LC-MS/MS. Blood samples were removed at the same time point via tail vein bleed, centrifuged and the plasma analysed by LC-MS/MS.
To permit calculation of unbound brain-to-plasma ratio (Kp,uu), test compound binding in rat plasma and brain homogenate was performed, using Rapid Equilibrium Dialysis (RED). Test compound prepared in DMSO (1 μM final, 0.2% DMSO) was added to (i) undiluted male Sprague Dawley rat plasma and (ii) rat brain tissue homogenised with 2 volumes (w/v) of sodium phosphate buffer (pH 7.4), and dialysed against phosphate buffer for 5 h at 37° C. […] Fraction unbound (Fu) in plasma and brain was calculated using the following formula, then used to correct total plasma and brain concentrations to derive the Kp,uu: […]

clearance ([1]; rat IV, 1 mg/kg): 5.5 ± 1 mL/min/kg
bioavailability ([1]; rat PO, 3 mg/kg): 88.2 ± 11.4%
EC50 (human GPR52; HEKf cells infected with human GPR52 BacMam virus, HTRF cAMP, 30 min at 37° C., read-out: PEC50 average (converted)): 50.1 nM
Emax (human GPR52; maximal response normalised to DMSO (0%) and compound 7m of J. Med. Chem., 2014, 57, 5226 (100%)): 86%
Kp uu at 10 min [2]: 0.35 ± 0.02
SMILES: CC(=O)NC1CCCc2c1nnn2-c1cc(Cc2cc(F)cc(C(F)(F)F)c2)ccn1 (centres unmarked) [Example 2, N-(1-(4-(3-fluoro-5-(trifluoromethyl)benzyl)pyridin-2-yl)-4,5,6,7-tetrahydro-1H-benzo[d][1,2,3]triazol-4-yl)acetamide]

From patent US20230348416A1, “GPR52 MODULATOR COMPOUNDS” (Heptares Therapeutics Limited, priority 2020, published 2023)
